Measurements: patent publication US20100016343A1 (WYETH, priority 2008, published 2010)
Like-named read-outs stand apart in the source and are kept apart here.

What was measured:
[1] = target: T1, alpha3 (ganglionic) nACh receptors (Homo sapiens, UniProt P30926+P32297); assay: calcium-monitoring FLIPR selectivity assay using the native SH-SY5Y cell line; type: cell-based; settings: read-out: Alpha 3 EC50
T1 construct: using the native SH-SY5Y cell line; endogenous in cells; host or cells: SH-SY5Y
T1 sequence (P32297 32-505): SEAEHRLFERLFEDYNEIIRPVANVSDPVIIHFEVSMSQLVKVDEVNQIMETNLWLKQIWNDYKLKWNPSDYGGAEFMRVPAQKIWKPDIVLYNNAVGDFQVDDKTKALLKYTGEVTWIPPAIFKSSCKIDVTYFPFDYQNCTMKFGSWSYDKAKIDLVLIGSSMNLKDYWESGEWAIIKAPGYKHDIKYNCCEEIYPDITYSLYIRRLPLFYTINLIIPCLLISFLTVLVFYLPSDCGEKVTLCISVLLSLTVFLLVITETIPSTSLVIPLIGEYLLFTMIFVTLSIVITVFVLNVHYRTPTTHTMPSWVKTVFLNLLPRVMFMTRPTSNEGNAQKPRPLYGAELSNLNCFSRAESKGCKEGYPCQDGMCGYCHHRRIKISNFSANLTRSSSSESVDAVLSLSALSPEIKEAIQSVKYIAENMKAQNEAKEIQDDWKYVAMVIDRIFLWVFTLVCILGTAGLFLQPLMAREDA
T1 sequence (P30926 22-498): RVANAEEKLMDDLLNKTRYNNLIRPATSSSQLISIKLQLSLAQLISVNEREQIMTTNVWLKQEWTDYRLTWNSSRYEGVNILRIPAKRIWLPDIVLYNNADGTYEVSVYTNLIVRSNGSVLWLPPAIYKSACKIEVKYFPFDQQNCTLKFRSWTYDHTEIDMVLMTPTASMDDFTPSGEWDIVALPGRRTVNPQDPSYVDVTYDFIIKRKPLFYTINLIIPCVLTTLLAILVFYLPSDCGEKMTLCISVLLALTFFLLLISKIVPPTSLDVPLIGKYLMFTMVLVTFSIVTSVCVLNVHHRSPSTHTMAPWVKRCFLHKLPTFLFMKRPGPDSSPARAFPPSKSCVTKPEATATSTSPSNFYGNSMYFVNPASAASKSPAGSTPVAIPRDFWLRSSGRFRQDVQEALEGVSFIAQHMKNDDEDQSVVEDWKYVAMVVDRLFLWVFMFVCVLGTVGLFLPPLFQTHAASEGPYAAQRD
From the text: Functional FLIPR assays were developed in order to test the selectivity of compounds against the alpha1 (muscular) and alpha3 (ganglionic) nACh receptors and the structurally related 5-HT3 receptor. […] In order to test selectivity against the 5-HT3 receptor, a recombinant cell line was constructed expressing the human 5-HT3A receptor in HEK 293 cells and a calcium-monitoring FLIPR assay employed.

rat-alpha7-nAChR = target: T2, rat-alpha7-nAChR (Rattus norvegicus, UniProt Q05941); assay: functional FLIPR assay, alpha7 nAChR stably expressed in GH4C1 cells; type: cell-based
T2 construct: expressed in transfected cells
T2 sequence (Q05941 23-502): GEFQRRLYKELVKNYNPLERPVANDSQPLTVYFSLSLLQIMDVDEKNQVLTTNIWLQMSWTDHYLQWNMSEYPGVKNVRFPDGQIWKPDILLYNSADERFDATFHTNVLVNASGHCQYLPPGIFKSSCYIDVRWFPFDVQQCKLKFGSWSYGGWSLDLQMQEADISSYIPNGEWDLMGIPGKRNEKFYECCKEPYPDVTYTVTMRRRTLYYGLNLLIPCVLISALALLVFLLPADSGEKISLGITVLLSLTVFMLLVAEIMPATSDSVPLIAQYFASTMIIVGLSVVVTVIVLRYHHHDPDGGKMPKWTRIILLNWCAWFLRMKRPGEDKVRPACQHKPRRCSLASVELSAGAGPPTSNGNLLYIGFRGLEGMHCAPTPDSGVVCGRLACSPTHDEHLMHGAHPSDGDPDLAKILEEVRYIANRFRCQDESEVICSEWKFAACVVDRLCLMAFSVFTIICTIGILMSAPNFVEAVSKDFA
From the text: Rat GH4C1 cells were then transfected with the rat receptor, cloned and analyzed for functional alpha7 nicotinic receptor expression employing a FLIPR assay to measure changes in intracellular calcium concentrations.
The FLIPR system allows the measurements of real time Ca^2+-concentration changes in living cells using a Ca^2+ sensitive fluorescence dye (such as Fluo4). This instrument enables the screening for agonists and antagonists for alpha 7 nAChR channels stably expressed in GH4C1 cells.
GH4C1 cells stably transfected with rat-alpha7-nAChR (see above) were used. These cells are poorly adherent and therefore pretreatment of flasks and plates with poly-D-lysine was carried out. Cells are grown in 150 cm^2 T-flasks, filled with 30 ml of medium at 37° C. and 5% CO2.
EC50 and IC50 values were calculated using the IDBS XLfit4.1 software package employing a sigmoidal concentration-response (variable slope) equation:
Y=Bottom+((Top−Bottom)/(1+((EC50/X)̂HillSlope))
Certain compounds of the present disclosure were tested using the functional FLIPR primary screening assay employing the stable recombinant GH4C1 cell line expressing the alpha7 nAChR.

CYP2C9 = CYP2C9 (Homo sapiens, UniProt P11712); assay: CYP2C9 % inhibition; type: in vitro ADME
Sequence of CYP2C9 (P11712 whole entry, species assumed): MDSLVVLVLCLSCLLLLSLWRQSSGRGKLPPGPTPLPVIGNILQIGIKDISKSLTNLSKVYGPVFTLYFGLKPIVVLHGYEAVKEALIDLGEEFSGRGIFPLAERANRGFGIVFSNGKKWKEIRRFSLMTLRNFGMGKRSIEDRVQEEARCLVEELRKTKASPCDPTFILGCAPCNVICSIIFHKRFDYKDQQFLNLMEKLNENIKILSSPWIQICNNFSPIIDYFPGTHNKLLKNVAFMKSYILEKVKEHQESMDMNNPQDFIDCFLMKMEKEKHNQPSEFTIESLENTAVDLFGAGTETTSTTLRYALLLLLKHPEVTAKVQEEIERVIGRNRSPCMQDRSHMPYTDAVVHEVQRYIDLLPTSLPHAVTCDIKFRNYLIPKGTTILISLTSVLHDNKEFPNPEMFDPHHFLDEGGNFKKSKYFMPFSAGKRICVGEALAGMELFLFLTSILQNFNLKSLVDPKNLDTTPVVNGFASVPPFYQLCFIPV

CYP2D6 = CYP2D6 (Homo sapiens, UniProt P10635); assay: CYP2D6 % inhibition; type: in vitro ADME
Sequence of CYP2D6 (P10635 whole entry, species assumed): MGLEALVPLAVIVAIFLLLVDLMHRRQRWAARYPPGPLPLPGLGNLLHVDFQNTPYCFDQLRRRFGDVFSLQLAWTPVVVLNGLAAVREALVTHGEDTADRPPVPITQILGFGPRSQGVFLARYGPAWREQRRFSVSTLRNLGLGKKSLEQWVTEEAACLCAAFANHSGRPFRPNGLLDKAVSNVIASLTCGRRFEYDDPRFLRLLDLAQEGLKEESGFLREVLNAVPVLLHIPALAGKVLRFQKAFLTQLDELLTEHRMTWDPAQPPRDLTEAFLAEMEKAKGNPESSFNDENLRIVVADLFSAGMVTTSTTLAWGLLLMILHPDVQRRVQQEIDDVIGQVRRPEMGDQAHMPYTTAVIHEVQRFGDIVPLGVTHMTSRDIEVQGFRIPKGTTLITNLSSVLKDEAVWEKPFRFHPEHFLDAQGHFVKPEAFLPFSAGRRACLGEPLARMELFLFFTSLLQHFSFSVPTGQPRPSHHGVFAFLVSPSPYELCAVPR

CYP3A4 = CYP3A4 (Homo sapiens, UniProt P08684); assay: CYP3A4 % inhibition; type: in vitro ADME
Sequence of CYP3A4 (P08684 whole entry, species assumed): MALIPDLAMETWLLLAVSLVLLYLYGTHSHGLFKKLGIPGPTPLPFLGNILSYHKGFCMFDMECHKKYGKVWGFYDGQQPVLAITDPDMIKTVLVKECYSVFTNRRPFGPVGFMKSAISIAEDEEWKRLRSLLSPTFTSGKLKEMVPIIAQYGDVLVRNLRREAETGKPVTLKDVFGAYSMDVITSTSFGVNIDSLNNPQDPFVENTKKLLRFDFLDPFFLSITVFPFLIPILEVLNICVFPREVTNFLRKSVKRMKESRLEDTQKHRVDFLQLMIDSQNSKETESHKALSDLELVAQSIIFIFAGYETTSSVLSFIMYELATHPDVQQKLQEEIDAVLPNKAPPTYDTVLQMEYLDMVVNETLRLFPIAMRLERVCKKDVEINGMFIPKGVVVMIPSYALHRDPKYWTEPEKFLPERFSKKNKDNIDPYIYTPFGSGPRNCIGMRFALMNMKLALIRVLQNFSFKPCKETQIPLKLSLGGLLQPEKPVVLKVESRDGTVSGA

[2] = GH4C1 cell line expressing the alpha7 nAChR, concentration-response curves, read-out: Alpha 7 EC50

O=C(NCCCC[N+]1([O-])CCCCC1)Nc1ccc(-c2ccc(F)cc2)nc1
EC50 [1]: 9800 nM
EC50 (rat-alpha7-nAChR; [2]): 460 nM

O=C(NCCCCN1CCCCC1)Nc1ccc(-c2ccncc2)nc1
CYP2C9 % inhibition (CYP2C9): 1%
CYP2D6 % inhibition (CYP2D6): 12%
CYP3A4 % inhibition (CYP3A4): −1%
EC50 (rat-alpha7-nAChR; [2]): 400 nM

O=C(NCCCCN1CCCCC1)Nc1ccc(-c2cccnc2)cc1
CYP2C9 % inhibition (CYP2C9): −22%
CYP2D6 % inhibition (CYP2D6): 72%
CYP3A4 % inhibition (CYP3A4): 2%
EC50 [1]: 3610 nM
EC50 (rat-alpha7-nAChR; [2]): 100 nM

O=C(NCCCCN1CCCCC1)Nc1ccc(-c2ccccc2F)cc1
CYP2C9 % inhibition (CYP2C9): −1%
CYP2D6 % inhibition (CYP2D6): 75%
CYP3A4 % inhibition (CYP3A4): −17%
EC50 [1]: 1500 nM
EC50 (rat-alpha7-nAChR; [2]): 190 nM

COc1ccccc1-c1ccc(NC(=O)NCCCCN2CCCCC2)cc1
CYP2C9 % inhibition (CYP2C9): −2%
CYP2D6 % inhibition (CYP2D6): 38%
CYP3A4 % inhibition (CYP3A4): 5%
EC50 [1]: 1080 nM
EC50 (rat-alpha7-nAChR; [2]): 170 nM

O=C(NCCCCN1CCCCC1)Nc1ccc(-c2ccccc2)nc1
CYP2C9 % inhibition (CYP2C9): −4%
CYP2D6 % inhibition (CYP2D6): 6%
CYP3A4 % inhibition (CYP3A4): −21%
EC50 [1]: 10100 nM
EC50 (rat-alpha7-nAChR; [2]): 90 nM

COc1ncccc1-c1ccc(NC(=O)NCCCCN2CCCCC2)cn1 [drawing 62]
CYP2C9 % inhibition (CYP2C9): −12%
CYP2D6 % inhibition (CYP2D6): 8%
CYP3A4 % inhibition (CYP3A4): −4%
EC50 [1]: 15700 nM

C[N+]1(C)CCN(c2ccccc2)CC1 [DMPP, reference compound]
EC50 (rat-alpha7-nAChR; assay validation with agonists, alpha7 nAChR in GH4C1 cells, concentration range 0.001 to 30 microM, read-out: EC50): 980 ± 470 nM

O=C(NCCCCN1CCCCC1)Nc1ccc(-c2ccc(F)nc2)nc1
CYP2C9 % inhibition (CYP2C9): −10%
CYP2D6 % inhibition (CYP2D6): 8%
CYP3A4 % inhibition (CYP3A4): −19%
EC50 (rat-alpha7-nAChR; [2]): 720 nM

O=C(NCCCCN1CCCCC1)Nc1ccc(-c2ccc3c(c2)OCO3)nc1
CYP2C9 % inhibition (CYP2C9): 6%
CYP2D6 % inhibition (CYP2D6): 79%
CYP3A4 % inhibition (CYP3A4): 65%
EC50 (rat-alpha7-nAChR; [2]): 140 nM

O=C(NCCCCN1CCCCC1)Nc1ccc(-c2ccncc2)cc1
CYP2C9 % inhibition (CYP2C9): 6%
CYP2D6 % inhibition (CYP2D6): 48%
CYP3A4 % inhibition (CYP3A4): 17%
EC50 [1]: 2950 nM
EC50 (rat-alpha7-nAChR; [2]): 180 nM

O=C(NCCCCN1CCCCC1)Nc1ccc(-c2cccc(F)c2)cc1
CYP2C9 % inhibition (CYP2C9): −12%
CYP2D6 % inhibition (CYP2D6): 62%
CYP3A4 % inhibition (CYP3A4): −21%
EC50 [1]: 1780 nM
EC50 (rat-alpha7-nAChR; [2]): 110 nM

Cn1cc(-c2ccc(NC(=O)NCCCCN3CCCCC3)cn2)cn1
CYP2C9 % inhibition (CYP2C9): 3%
CYP2D6 % inhibition (CYP2D6): 1%
CYP3A4 % inhibition (CYP3A4): −4%
EC50 [1]: > 30000 nM
EC50 (rat-alpha7-nAChR; [2]): 450 nM

Cn1cc(-c2ccc(NC(=O)NCCCCN3CCCCC3)cc2)cn1
CYP2C9 % inhibition (CYP2C9): 9%
CYP2D6 % inhibition (CYP2D6): 45%
CYP3A4 % inhibition (CYP3A4): 68%
EC50 [1]: 5040 nM
EC50 (rat-alpha7-nAChR; [2]): 130 nM

O=C(NCCCCN1CCCCC1)Nc1ccc(-c2ccc3c(c2)OCO3)cc1
CYP2C9 % inhibition (CYP2C9): 0%
CYP2D6 % inhibition (CYP2D6): 97%
CYP3A4 % inhibition (CYP3A4): 74%
EC50 [1]: 1720 nM
EC50 (rat-alpha7-nAChR; [2]): 100 nM

COc1ncccc1-c1ccc(NC(=O)NCCCCN2CCCCC2)cn1 [drawing 63]
CYP2C9 % inhibition (CYP2C9): −36%
CYP2D6 % inhibition (CYP2D6): 8%
CYP3A4 % inhibition (CYP3A4): −21%
EC50 [1]: 5670 nM

COc1ccc(-c2ccc(NC(=O)NCCCCN3CCCCC3)cn2)cc1
CYP2C9 % inhibition (CYP2C9): −15%
CYP2D6 % inhibition (CYP2D6): 54%
CYP3A4 % inhibition (CYP3A4): −8%
EC50 [1]: 4120 nM
EC50 (rat-alpha7-nAChR; [2]): 260 nM

O=C(NCCCCN1CCCCC1)Nc1ccc(-c2ccccc2)cc1
CYP2C9 % inhibition (CYP2C9): 2%
CYP2D6 % inhibition (CYP2D6): 64%
CYP3A4 % inhibition (CYP3A4): 51%
EC50 [1]: 2840 nM
EC50 (rat-alpha7-nAChR; [2]): 310 nM

O=C(NCCCCN1CCCCC1)Nc1ccc(-c2cccnc2)nc1
CYP2C9 % inhibition (CYP2C9): −3%
CYP2D6 % inhibition (CYP2D6): 22%
CYP3A4 % inhibition (CYP3A4): 0%
EC50 [1]: 9880 nM
EC50 (rat-alpha7-nAChR; [2]): 590 nM

COc1ccccc1-c1ccc(NC(=O)NCCCCN2CCCCC2)cn1
CYP2C9 % inhibition (CYP2C9): 6%
CYP2D6 % inhibition (CYP2D6): 8%
CYP3A4 % inhibition (CYP3A4): 8%
EC50 [1]: 3860 nM
EC50 (rat-alpha7-nAChR; [2]): 260 nM

O=C(NCCCCN1CCCCC1)Nc1ccc(-c2ccc(F)nc2)cc1
CYP2C9 % inhibition (CYP2C9): −18%
CYP2D6 % inhibition (CYP2D6): 21%
CYP3A4 % inhibition (CYP3A4): −22%
EC50 [1]: 1210 nM
EC50 (rat-alpha7-nAChR; [2]): 130 nM

COc1ccc(-c2ccc(NC(=O)NCCCCN3CCCCC3)cc2)cc1
CYP2C9 % inhibition (CYP2C9): −14%
CYP2D6 % inhibition (CYP2D6): 97%
CYP3A4 % inhibition (CYP3A4): 32%
EC50 [1]: 1770 nM
EC50 (rat-alpha7-nAChR; [2]): 220 nM

O=C(NCCCCN1CCCCC1)Nc1ccc(-c2ccccc2F)nc1
CYP2C9 % inhibition (CYP2C9): −10%
CYP2D6 % inhibition (CYP2D6): 14%
CYP3A4 % inhibition (CYP3A4): −3%
EC50 [1]: 5550 nM
EC50 (rat-alpha7-nAChR; [2]): 200 nM

COc1ccc(F)c(-c2ccc(NC(=O)NCCCCN3CCCCC3)cn2)c1
CYP2C9 % inhibition (CYP2C9): 10%
CYP2D6 % inhibition (CYP2D6): 18%
CYP3A4 % inhibition (CYP3A4): 43%
EC50 [1]: 4340 nM
EC50 (rat-alpha7-nAChR; [2]): 80 nM

O=C(NCCCCN1CCCCC1)Nc1ccc(-c2ccc(F)cc2)cc1
CYP2C9 % inhibition (CYP2C9): −16%
CYP2D6 % inhibition (CYP2D6): 65%
CYP3A4 % inhibition (CYP3A4): −13%
EC50 [1]: 1730 nM
EC50 (rat-alpha7-nAChR; [2]): 220 nM

O=C(NCCCCN1CCCCC1)Nc1ccc(-c2cccc(F)c2)nc1
CYP2C9 % inhibition (CYP2C9): 0%
CYP2D6 % inhibition (CYP2D6): 10%
CYP3A4 % inhibition (CYP3A4): 26%
EC50 (rat-alpha7-nAChR; [2]): 180 nM

O=C(NCCCCN1CCCCC1)Nc1ccc(-c2cccs2)cc1
CYP2C9 % inhibition (CYP2C9): −5%
CYP2D6 % inhibition (CYP2D6): 69%
CYP3A4 % inhibition (CYP3A4): 24%
EC50 [1]: 3560 nM
EC50 (rat-alpha7-nAChR; [2]): 190 nM

O=C(NCCCCN1CCCCC1)Nc1ccc(-c2ccc(F)cc2)nc1
EC50 [1]: 9530 nM

O=C(NCCCCN1CCCCC1)Nc1ccc(-c2cccs2)nc1
CYP2C9 % inhibition (CYP2C9): 2%
CYP2D6 % inhibition (CYP2D6): 7%
CYP3A4 % inhibition (CYP3A4): 2%
EC50 [1]: 8430 nM
EC50 (rat-alpha7-nAChR; [2]): 100 nM

COc1ccc(F)c(-c2ccc(NC(=O)NCCCCN3CCCCC3)cc2)c1
CYP2C9 % inhibition (CYP2C9): −26%
CYP2D6 % inhibition (CYP2D6): 83%
CYP3A4 % inhibition (CYP3A4): 51%
EC50 [1]: 2320 nM
EC50 (rat-alpha7-nAChR; [2]): 100 nM
